Experimental data reported in US12421254B2, “KRAS modulators and uses thereof” (Quanta Therapeutics, Inc., priority 2023, dated 2025).
Like-named read-outs stand apart in the source and are kept apart here.

Key:
[1] = molecular target: GST-tagged KRAS-G12D (2-169) (Homo sapiens, UniProt P01116, G12D); experiment: Nucleotide exchange assay (NEA), SOS-mediated, HTRF, KRAS G12D; assay type: biochemical; conditions: IC50 extracted at 30 min, 20 nM SOScat
Source text: (§1) This activity is tightly regulated by GTPase activating proteins (GAPs) and guanine nucleotide exchange factors (GEFs). GEFs, such as SOS1/2, activate Ras proteins by exchanging GDP for GTP, thus returning Ras to its active conformation (Simanshu, Nissley, & McCormick, 2017). […] Homogenous time resolved fluorescence (HTRF) was used to detect SOS-mediated binding of a fluorescent GTP analog, GTP-DY-647P1 (Jena Biosciences NU-820-647P1) to GST-tagged KRAS-G12D (2-169) or to GST-tagged KRAS-G12V (2-169, Reaction Biology, MSC-11-540).
(§2) GST-tagged KRAS-G12D (2-169) and anti-GST MAb Tb Cryptate Gold (CisBio 61GSTTLB) were diluted into assay buffer (20 mM HEPES, pH 7.3, 150 mM NaCl, 5 mM MgCl2, 0.05% BSA 0.0025% NP40, 1 mM DTT) to prepare a 2.5× donor solution. 5× compound was added to the protein mixture and incubated for 1 h at RT. 2.5× acceptor solution containing SOS1cat (564-1049, Reaction Biology MSC-11-502) and GTP-DY-647P1 were then added to the donor KRAS mixture such that the final concentration of the reaction contained 0.25 nM GST-tagged KRAS-G12D (2-169), 20 nM SOScat, and 150 nM GTP-DY-647P1. The reaction was monitored using at RT with the Envision multimode plate reader (Ex/Em 337/665, […]) up to 90 minutes at 5 minute intervals. To monitor KRAS-G12V SOS-mediated nucleotide exchange, 80 nM SOS was added to reaction instead of 20 nM. All other components were the same as previously described. Data was blanked to reactions without SOS1 and % inhibition was calculated such that DMSO only =0% and blank=100%. Curve fitting was done using a 4 parameter fit. Reported IC50 values were extracted at 30 min and 90 min for the KRAS-G12D and KRAS-G12V assays, respectively.
NEA KRAS G12D IC50 (uM) values of selected compounds are depicted in Table 2 with compounds having a value <0.01 uM as ++++; ≥0.01 uM to 0.1 uM as +++; ≥0.1 uM to 1 uM as ++; ≥1 uM to 20 uM as +; and ≥20 uM as NA.

[2] = molecular target: GST-tagged KRAS-G12V (2-169) (Homo sapiens, UniProt P01116, G12V); experiment: Nucleotide exchange assay (NEA), SOS-mediated, HTRF, KRAS G12V; assay type: biochemical; conditions: Table 4; IC50 extracted at 90 min; 80 nM SOS
Sequence of GST-tagged KRAS-G12V (2-169) (P01116 2-169 isoform P01116-2 G12V): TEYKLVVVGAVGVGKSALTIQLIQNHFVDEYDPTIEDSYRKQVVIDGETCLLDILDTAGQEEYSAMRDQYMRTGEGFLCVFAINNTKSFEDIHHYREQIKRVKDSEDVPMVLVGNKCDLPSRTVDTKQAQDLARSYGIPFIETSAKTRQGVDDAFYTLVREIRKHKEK
Source text: as §1, §2

[3] = Table 4, read-out: NEA G12D IC50
[4] = Table 2, read-out: NEA-G12D (uM) IC50

Sequence of GST-tagged KRAS-G12D (2-169) (P01116 2-169 isoform P01116-2 G12D): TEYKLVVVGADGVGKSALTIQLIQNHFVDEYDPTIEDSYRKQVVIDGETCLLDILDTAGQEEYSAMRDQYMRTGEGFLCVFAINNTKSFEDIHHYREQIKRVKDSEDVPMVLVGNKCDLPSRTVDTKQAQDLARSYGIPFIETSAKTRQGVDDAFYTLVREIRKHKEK

| Structure (SMILES) | IC50 [1, 3] [µM] | IC50 [2] [nM] | IC50 [1, 4] [µM] |
| --- | --- | --- | --- |
| CC(c1nsnc1N)N(C)c1nc(OC[C@@]23CCCN2C[C@H](F)C3)nc(N2CC3(C2)SCc2sc(N)c(C#N)c23)n1 (single isomer, unassigned) [Compound 184B, 2-amino-1′-[4-[[(1*)-1-(4-amino-1,2,5-thiadiazol-3-yl)ethyl]-methyl-amino]-6-[[(2R,8S)-2-fluoro-1,2,3,5,6,7-hexahydropyrrolizin-8-yl]methoxy]-1,3,5-triazin-2-yl]spiro[6H-thieno[2,3-c]thiophene-4,3′-azetidine]-3-carbonitrile] | 0.1 to 1 | 10 to 100 |  |
| C[C@@]1(O)CCCN(c2nc(OC[C@@]34CCCN3C[C@H](F)C4)nc(N3CCC4(CCc5sc(N)c(C#N)c54)C3)n2)C1 (stereo partly drawn) [Compound 11, 2-amino-1′-[4-[[(2R,8S)-2-fluoro-1,2,3,5,6,7-hexahydropyrrolizin-8-yl]methoxy]-6-[(3R)-3-hydroxy-3-methyl-1-piperidyl]-1,3,5-triazin-2-yl]spiro[5,6-dihydrocyclopenta[b]thiophene-4,3′-pyrrolidine]-3-carbonitrile] | 0.1 to 1 | 100 to 1000 | 0.1 to 1 |
| CN(CC1(C#N)CC1)c1nc(OC[C@@]23CCCN2C[C@H](F)C3)nc(N2CCC3(CCc4sc(N)c(C#N)c43)C2)n1 (stereo partly drawn) [Compound 14, 2-amino-1′-[4-[(1-cyanocyclopropyl)methyl-methyl-amino]-6-[[(2R,8S)-2-fluoro-1,2,3,5,6,7-hexahydropyrrolizin-8-yl]methoxy]-1,3,5-triazin-2-yl]spiro[5,6-dihydrocyclopenta[b]thiophene-4,3′-pyrrolidine]-3-carbonitrile] | 1 to 20 | 1000 to 20000 | 1 to 20 |
| N#Cc1c(N)sc2c1C1(CC2)CN(c2nc(OC[C@@]34CCCN3C[C@H](F)C4)nc(N3CCC[C@@H](O)C3)n2)C1 [Compound 23, 2-amino-1′-[4-[[(2R,8S)-2-fluoro-1,2,3,5,6,7-hexahydropyrrolizin-8-yl]methoxy]-6-[(3R)-3-hydroxy-1-piperidyl]-1,3,5-triazin-2-yl]spiro[5,6-dihydrocyclopenta[b]thiophene-4,3′-azetidine]-3-carbonitrile] | 0.1 to 1 | 100 to 1000 |  |
| CN(c1nc(OC[C@@]23CCCN2C[C@H](F)C3)nc(N2CC3(CCc4sc(N)c(C#N)c43)C2)n1)C1CCOC1 (stereo partly drawn) [Compound 36, 2-amino-1′-[4-[[(2R,8S)-2-fluoro-1,2,3,5,6,7-hexahydropyrrolizin-8-yl]methoxy]-6-[methyl(tetrahydrofuran-3-yl)amino]-1,3,5-triazin-2-yl]spiro[5,6-dihydrocyclopenta[b]thiophene-4,3′-azetidine]-3-carbonitrile] | 0.1 to 1 | 100 to 1000 |  |
| N#Cc1c(N)sc2c1C1(CC2)CN(c2nc(OC[C@@]34CCCN3C[C@H](F)C4)nc(N3CCC4CC4(CO)C3)n2)C1 (stereo partly drawn) [Compound 41, 2-amino-1′-[4-[[(2R,8S)-2-fluoro-1,2,3,5,6,7-hexahydropyrrolizin-8-yl]methoxy]-6-[1-(hydroxymethyl)-3-azabicyclo[4.1.0]heptan-3-yl]-1,3,5-triazin-2-yl]spiro[5,6-dihydrocyclopenta[b]thiophene-4,3′-azetidine]-3-carbonitrile] | 1 to 20 | 100 to 1000 |  |
| N#CCC12CC1CN(c1nc(OC[C@@]34CCCN3C[C@H](F)C4)nc(N3CC4(CCc5sc(N)c(C#N)c54)C3)n1)C2 (stereo partly drawn) [Compound 42, 2-amino-1′-[4-[1-(cyanomethyl)-3-azabicyclo[3.1.0]hexan-3-yl]-6-[[(2R,8S)-2-fluoro-1,2,3,5,6,7-hexahydropyrrolizin-8-yl]methoxy]-1,3,5-triazin-2-yl]spiro[5,6-dihydrocyclopenta[b]thiophene-4,3′-azetidine]-3-carbonitrile] | 1 to 20 | 100 to 1000 |  |
| C[C@]1(O)C[C@@H](O)CN(c2nc(OC[C@@]34CCCN3C[C@H](F)C4)nc(N3CC4(CCc5sc(N)c(C#N)c54)C3)n2)C1 [Compound 46, 2-amino-1′-[4-[(3S,5R)-3,5-dihydroxy-3-methyl-1-piperidyl]-6-[[(2R,8S)-2-fluoro-1,2,3,5,6,7-hexahydropyrrolizin-8-yl]methoxy]-1,3,5-triazin-2-yl]spiro[5,6-dihydrocyclopenta[b]thiophene-4,3′-azetidine]-3-carbonitrile] | 0.1 to 1 | 10 to 100 |  |
| N#Cc1c(N)sc2c1C1(CCC2)CN(c2nc(OCC3(C#N)CC3)nc(OC[C@@]34CCCN3C[C@H](F)C4)n2)C1 [Compound 54, 2-amino-1′-[4-[(1-cyanocyclopropyl)methoxy]-6-[[(2R,8S)-2-fluoro-1,2,3,5,6,7-hexahydropyrrolizin-8-yl]methoxy]-1,3,5-triazin-2-yl]spiro[6,7-dihydro-5H-benzothiophene-4,3′-azetidine]-3-carbonitrile] | 0.1 to 1 | 10 to 100 |  |
| C[C@@]1(O)CCCN(c2nc(OC[C@@]34CCCN3C[C@H](F)C4)nc(N3CCC4(CCCc5sc(N)c(C#N)c54)C3)n2)C1 (stereo partly drawn) [Compound 60, 2-amino-1′-[4-[[(2R,8S)-2-fluoro-1,2,3,5,6,7-hexahydropyrrolizin-8-yl]methoxy]-6-[(3R)-3-hydroxy-3-methyl-1-piperidyl]-1,3,5-triazin-2-yl]spiro[6,7-dihydro-5H-benzothiophene-4,3′-pyrrolidine]-3-carbonitrile] | 1 to 20 | 1000 to 20000 |  |
| C[C@@]1(O)CCCN(c2nc(OCC3(CN4CCOCC4)CC3)nc(N3CCC4(CCCc5sc(N)c(C#N)c54)C3)n2)C1 (stereo partly drawn) [Compound 64, 2-amino-1′-[4-[(3R)-3-hydroxy-3-methyl-1-piperidyl]-6-[[1-(morpholinomethyl)cyclopropyl]methoxy]-1,3,5-triazin-2-yl]spiro[6,7-dihydro-5H-benzothiophene-4,3′-pyrrolidine]-3-carbonitrile] | 1 to 20 | 1000 to 20000 |  |
| C[C@@]1(CO)C[C@H](O)CN1c1nc(OC[C@@]23CCCN2C[C@H](F)C3)nc(N2CC3(CCc4sc(N)c(C#N)c43)C2)n1 [Compound 66, 2-amino-1′-[4-[[(2R,8S)-2-fluoro-1,2,3,5,6,7-hexahydropyrrolizin-8-yl]methoxy]-6-[(2S,4S)-4-hydroxy-2-(hydroxymethyl)-2-methyl-pyrrolidin-1-yl]-1,3,5-triazin-2-yl]spiro[5,6-dihydrocyclopenta[b]thiophene-4,3′-azetidine]-3-carbonitrile] | 0.1 to 1 | 10 to 100 |  |
| C[C@]1(CO)C[C@H](O)CN1c1nc(OC[C@@]23CCCN2C[C@H](F)C3)nc(N2CC3(CCc4sc(N)c(C#N)c43)C2)n1 [Compound 72, 2-amino-1′-[4-[[(2R,8S)-2-fluoro-1,2,3,5,6,7-hexahydropyrrolizin-8-yl]methoxy]-6-[(2R,4S)-4-hydroxy-2-(hydroxymethyl)-2-methyl-pyrrolidin-1-yl]-1,3,5-triazin-2-yl]spiro[5,6-dihydrocyclopenta[b]thiophene-4,3′-azetidine]-3-carbonitrile] | 0.1 to 1 | 100 to 1000 |  |
| C[C@]1(O)C[C@H](O)CN(c2nc(OC[C@@]34CCCN3C[C@H](F)C4)nc(N3CC4(CCc5sc(N)c(C#N)c54)C3)n2)C1 [Compound 75, 2-amino-1′-[4-[(3S,5S)-3,5-dihydroxy-3-methyl-1-piperidyl]-6-[[(2R,8S)-2-fluoro-1,2,3,5,6,7-hexahydropyrrolizin-8-yl]methoxy]-1,3,5-triazin-2-yl]spiro[5,6-dihydrocyclopenta[b]thiophene-4,3′-azetidine]-3-carbonitrile] | 1 to 20 | 100 to 1000 |  |
| N#Cc1c(N)sc2c1C1(CC2)CN(c2nc(OCC3(O)CC3)nc(OC[C@@]34CCCN3C[C@H](F)C4)n2)C1 [Compound 76, 2-amino-1′-[4-[[(2R,8S)-2-fluoro-1,2,3,5,6,7-hexahydropyrrolizin-8-yl]methoxy]-6-[(1-hydroxycyclopropyl)methoxy]-1,3,5-triazin-2-yl]spiro[5,6-dihydrocyclopenta[b]thiophene-4,3′-azetidine]-3-carbonitrile] | 1 to 20 | 100 to 1000 |  |
| N#Cc1c(N)sc2c1C1(CC2)CN(c2nc(OC[C@@]34CCCN3C[C@H](F)C4)nc(OC3CCOC3)n2)C1 (stereo partly drawn) [Compound 78, 2-amino-1′-[4-[[(2R,8S)-2-fluoro-1,2,3,5,6,7-hexahydropyrrolizin-8-yl]methoxy]-6-tetrahydrofuran-3-yloxy-1,3,5-triazin-2-yl]spiro[5,6-dihydrocyclopenta[b]thiophene-4,3′-azetidine]-3-carbonitrile; formic acid] | 1 to 20 | 100 to 1000 |  |
